Our source for the melting point values is a melting point compilation (Tetko et al.; mined from patent text by program, amines drawn as free bases though some values may be those of a salt).

Molecules are shown by their SMILES. Some results are limits rather than exact numbers.

One may read the melting point as the temperature of the solid-liquid transition.

Compound `Cc1cc2nc3ccccc3sc-2c(Cl)c1=O` had a melting point of 206 °C.
`O=C1C=C(Oc2ccc(C(F)(F)F)cc2)C(O)O1` (stereo not drawn) displayed a melting point of 87 to 89 °C.
As for `CCOC(=O)Nc1cc2c3ccccc3n(Cc3ccccc3)c2cn1`, the figure is 217 to 218 °C.
`CCN(CC)C(=S)SCC(c1cccc2ccccc12)[N+](=O)[O-]` (stereo not drawn) returned a melting point of 136 to 138 °C.
For `CN1CC(CO)C2c3cccc4c3c(cn4S(=O)(=O)c3ccccc3)CC21` (stereo not drawn) the value was 124 to 127 °C.
`CN(Cc1cc2c(=O)c(C(=O)NCc3ccc(Cl)cc3)cn(C)c2o1)CC(O)CSc1nnc(N)s1` (stereo not drawn) showed a melting point of 200 to 204 °C.
As for `O=Cc1ccc(OCC(F)(F)F)c(O)c1`, the figure is 133 to 135 °C.
For `CNc1cc(N2CCN(C(=O)N3CCN(S(=O)(=O)c4ccc(C(F)(F)F)cc4)CC3)CC2)ncn1` the value was 230 to 231 °C.
As for `CON=C(C(=O)O)c1csc(NC(=O)CCl)n1`, the figure is 182 to 183 °C.
On to `CCOc1ccnc(CSc2nc3cc4c(cc3[nH]2)C(C)(C)C(=O)C4(C)C)c1C`, for which the melting point was in the range of 175 to 176 °C.
For `O=C1CCC(N2Cc3c(OCc4ccc(CN5CCN(S(=O)(=O)C(F)(F)F)CC5)cc4)cccc3C2=O)C(=O)N1` (stereo not drawn) the value was 135 to 137 °C; for `CNC1Oc2cc(Cl)cc(-c3ccccc3C)c2O1` (stereo not drawn), more than 250 °C.
Compound `CCOC(=O)c1nccn1C1C(=O)c2ccccc2N1C(C)=O` (stereo not drawn) gave a melting point of 210 °C.
In turn, `CSc1cc(N)ccc1[N+](=O)[O-]` displayed a melting point of 178 to 182 °C.
Compound `COc1ccc(OC)c(Sc2nc3c(N)ncnc3n2CCC=C(C)C)c1` gave a melting point of 148 to 150 °C.
As to `O=C(O)C(=O)c1ccc(OCCOc2ccc3ccccc3c2)s1`, the melting point was 152 to 154 °C.
The compound `CSC(C)=NOC(=O)N(C)SCCSN(C)C(=O)ON=C(SC)C(=O)N(C)C` showed a melting point of 102 to 106 °C.
For `COc1cc(N(C)C)c(Cl)cc1C(=O)NCC1CN(CCCOc2ccc(Cl)cc2)CCO1` (stereo not drawn) the value was 128 to 130 °C; for `OCc1c(Cl)nc(C2CCCCC2)n1Cc1ccccc1`, 160 to 161 °C; for `O=C1CN(C(=O)N2CCCC2)c2c(F)cccc2N1`, 126 to 132 °C.
As for `CC(=O)c1ccc2occ(C#N)c(=O)c2c1`, the figure is 170 to 172 °C.
As for `O=C(Nc1ccccc1SCc1ncon1)c1ccc(Cl)cc1`, the figure is 103 °C; as for `CN1c2ccccc2NC(=O)c2cccnc21`, 235 to 237 °C; as for `COc1cc2ncc(C(N)=O)c(Nc3cccc(Br)c3)c2cc1OC`, 239 to 242 °C.
With `CCOC(=O)C1(C(=O)OCC)CCC2(c3cc(OC)c(OC)cc3CCN2C(=O)CC)C(C2c3cc(OC)c(OC)cc3CCN2CC)C1` (stereo not drawn), the melting point turned out to be 138 °C.
With `CNC1CN(C(=O)Nc2ccc(C(F)(F)F)cc2)N=C1c1ccc(Cl)cc1` (stereo not drawn), the melting point lay within 148 to 149 °C.
For `CN(C)C1CCCN(C(=O)c2n[nH]c3ccccc23)C1` (stereo not drawn) the value was 141 to 142 °C.
As for `CN1C(=O)C2(CCN(CCCC(O)c3ccc(F)cc3)CC2)c2ccccc21` (stereo not drawn), the figure is 126 to 128 °C; as for `Cn1cc(C2=C(c3c4n(c5ccccc35)CCC(CNC(=O)OC(C)(C)C)C4)C(=O)OC2=O)c2ccccc21` (stereo not drawn), 124 to 126 °C.
As for `CCN(CC)CCOc1ccc2c(c1)C(=O)c1ccc(OCCN(CC)CC)cc1C2=O`, the figure is 169 to 170 °C; as for `CN=C(NC#N)Oc1ccccc1`, 132 to 133 °C.
Compound `Cc1cc(OC/C=C/c2ccccc2)c(C)c(C)c1NC=O` showed a melting point of 197 to 199 °C.
For `Cc1c(NCc2ccccc2)cc2c(c1C)OCC2c1ccc(C(C)C)cc1` (stereo not drawn) the value was 108 to 109 °C.
As for `CC(C)(C)c1cc(OCc2ccccc2C(=O)Nc2nnn[nH]2)cc(C(C)(C)C)c1`, the figure is 251 to 254 °C; as for `C[C@]1(CN2CC=C(c3ccccc3)CC2)Cn2cc([N+](=O)[O-])nc2O1`, 200 to 201 °C; as for `COC(=O)c1ccc(S(=O)(=O)Cc2c(O[C@H](Cn3ccnc3)c3ccccc3)ccc3c2CCCC3=O)cc1`, 105 °C.
For `NC(=O)c1cc([N+](=O)[O-])ccc1C=Cc1ccccc1` the value was 270 °C; for `CN(c1cccc2cc(-c3nccs3)[nH]c12)S(=O)(=O)c1ccsc1CSCC(=O)O`, 193 °C.
The compound `COc1ccc(CCN(CCc2ccc(-c3ccccc3)cc2)C(=O)CCCCC(N)=O)cc1OC` came in with a melting point of 177 to 179 °C.
For `CCOC(=O)CSc1ccc2nncn2n1` the value was 130 to 133 °C.
As for `CCC[C@H]1CC[C@H](CCc2ccc(-c3ccc(OCC)c(F)c3F)cc2)CC1`, the figure is 73 °C.
For `O=[N+]([O-])c1ccc(OCc2ccccc2)cc1OCc1ccccc1` the value was 101 to 103 °C; for `CCC1(CC)NC(=O)C(CC)(CC)N1`, 68 to 70 °C; for `CC(C(=O)N(C)C)n1cc(Cl)c(-c2ccccc2)n1` (stereo not drawn), 73.5 to 75 °C.
The compound `CC(C)(C)CC1N(C(c2ccccc2)C(O)c2ccccc2)C(C(=O)NC2CCC(O)CC2)C(c2cccc(Cl)c2F)C12C(=O)Nc1cc(Cl)ccc12` (stereo not drawn) yielded a melting point of 190 °C.
As for `CC(CN(C(=O)c1ccco1)c1c(C)cccc1C)=NO`, the figure is 155 to 156 °C; as for `CNC1=CC(=O)N(C)C1`, 132 to 134 °C.
For the compound `CCN(CC)CCOc1ccc(Nc2ncc3c(n2)N(C)C(=O)N(C)C3)cc1`, the melting point came out at 186 °C.
As for `O=S1NC(Cc2cc3cc(F)ccc3o2)=NO1` (stereo not drawn), the figure is 144 to 145 °C.
As for `CS(=O)c1c[nH]c2c(Sc3nc4cc(Cl)ccc4[nH]3)ccc([N+](=O)[O-])c12` (stereo not drawn), the figure is 243 to 246 °C.
For `COc1ccc(CN(Cc2ccco2)S(=O)(=O)c2ccc(C(=O)O)cc2)cc1` the value was 151 to 152 °C; for `O=C(Nc1ccc(OCCN2CCOCC2)c2ccccc12)c1cccc(N2CCOCC2)c1`, 90 to 92 °C; for `CCCCCCCC(=O)Nc1cccc(-c2cc(=O)cc(C(=O)O)o2)c1`, 242 to 247 °C.
`CCCCOc1nc2ccnn2c2ncccc12`: the melting point worked out at 99.8 °C.
For `COCCNc1cc(Sc2ccc(Cl)cc2)nc(-c2ccc(OC)cc2)n1` the value was 117 to 118 °C; for `CCOC(=O)c1[nH]c(CC)nc1C(C)C`, 177 to 178 °C.
For `CC(=O)OCC(=O)N(C)C` the value was 52 to 53 °C; for `c1csc(-c2cnc(COc3ccc(CCCn4ccnc4)cc3)o2)c1`, 75 to 76 °C.
For `CCCOC12CCC(=O)C3(C)Oc4c(O)ccc5c4C31CCN(CC1CC1)C2C5` (stereo not drawn) the value was 184 to 186 °C; for `Cn1c(=O)c2c(ncn2COC(=O)C(C)(C)C)n(C)c1=O`, 108 to 110 °C.
`CCOc1c(C(C)=O)cnc2c1cnn2Cc1ccco1` had a melting point of 139 to 141 °C.
For `NC(=O)CN1C(=O)COc2cc(F)c([N+](=O)[O-])cc21` the value was 220 to 226 °C.
The compound `CCCCN1CCn2c1nc(C(=O)NCc1ccc(F)cc1-n1cnc(C)n1)c(O)c2=O` registered a melting point of 214 °C.
